This is an account of results in patent US20080182865A1, “HISTONE DEACETYLASE INHIBITORS SENSITIZE CANCER CELLS TO EPIDERMAL GROWTH FACTOR INHIBITORS” (priority 2005, published 2008).

SMILES strings stand for the structures.

In one data set the test system is NSCLC patients. The settings on record: cited from earlier work; for response rate: single agent, phase I studies, chemotherapy resistant NSCLC patients.
A further data set deals with H460 NSCLC cell line. The data set is described as follows: Apoptosis and cell death (cell cycle analysis). In kind it is cell-based, human. The settings on record: 10 μM. How it is done: (§1) The effect of gefitinib on inducing apoptosis and cell death in NSCLC cell lines sensitive and resistant to gefitinib was evaluated.
The test system of the next data set is H157 NSCLC cell line. The data set is described as follows: Apoptosis and cell death (cell cycle analysis). It is filed as cell-based, human. The settings on record: 10 μM. On the procedure:
as §1

In the next data set the test system is H520 NSCLC cell line. The data set is described as follows: Apoptosis and cell death (cell cycle analysis). It is filed as cell-based, human. The settings on record: 10 μM. On the procedure: as §1
Another data set relates to H358 NSCLC cell line. The data set can be described thus: Apoptosis and cell death (cell cycle analysis). In kind it is cell-based, human. The settings on record: 10 μM. On the procedure:
(§2) The effect of gefitinib on inducing apoptosis and cell death in NSCLC cell lines sensitive and resistant to gefitinib was evaluated. […].

The test system of a further data set is H3255 NSCLC cell line. The data set is described as follows: Apoptosis and cell death (cell cycle analysis). It is filed as cell-based, human. The settings on record: 10 μM. How it is done:
as §2

For a further data set, the system named is H322 NSCLC cell line. The data set can be described thus: Apoptosis and cell death (cell cycle analysis). It is filed as cell-based, human. The settings on record: 10 μM. How it is done:
as §2

Another data set relates to Calu3 NSCLC cell line. The data set is described as follows: Apoptosis and cell death (cell cycle analysis). In kind it is cell-based, human. Conditions: 10 μM. How it is done: as §2
The next data set relates to A549 NSCLC cell line. The data set can be described thus: Apoptosis and cell death (cell cycle analysis). In kind it is cell-based, human. The settings on record: 10 μM. On the procedure:
as §2

Data set [1] has as its system E-cad. The settings on record: lung cancer cell lines; cited from earlier work.
The conditions of data set [2]: in vivo; cited from earlier work.
The test system of data set [3] is E-cad. The data set can be described thus: E-cad expression after MS-275 in gefitinib-resistant NSCLC cell lines. In kind it is cell-based, human. The settings on record: 24 hours after treatment with 4 or 10 μM.
Where [4] appears, read: unselected gefitinib treated NSCLC patients.

The term half-life denotes the time in which the quantity being followed falls by half.

As for `C#Cc1cccc(Nc2ncnc3cc(OCCOC)c(OCCOC)cc23)c1` [erlotinib], the survival result with NSCLC patients (second or third line therapy, National Cancer Institute Canada trial) was “survival benefit”. In the data set with NSCLC patients, the response rate result is reported as “about 10%”.

Take `COc1cc2ncnc(Nc3ccc(F)c(Cl)c3)c2cc1OCCCN1CCOCC1` [gefitinib]: the “apoptosis and cell death” value in the data set on H460 NSCLC cell line, in the data set on H157 NSCLC cell line, in the data set with H520 NSCLC cell line and with A549 NSCLC cell line was “no apoptotic or necrotic effect” each time. In addition, the “increase in apoptosis and cell death” value was 2.3-3.4 fold in the data set with H358 NSCLC cell line, 35 fold with H3255 NSCLC cell line, 2.3-3.4 fold in the data set on H322 NSCLC cell line and 2.3-3.4 fold in the data set on Calu3 NSCLC cell line. The response rate entry in the data set on NSCLC patients was “about 10%”. The objective response entry in the data set with NSCLC patients (setting [4]) is “up to 18%”. Further, the symptomatic improvement in the data set on NSCLC patients (setting [4]) was 40%.

`CC(/C=C/C(=O)NO)=C\[C@@H](C)C(=O)c1ccc(N(C)C)cc1` [TSA, trichostatin A]: in the data set with E-cad [1], the “effect on E-cad” value is recorded as “activation of E-cad”.

Consider `Nc1ccccc1NC(=O)c1ccc(CNC(=O)OCc2cccnc2)cc1` [MS-275], for which, in data set [2], the half-life was 100 h. The “persistence of changes in histone acetylation following administration” value in data set [2] is on record as “several weeks”. The “upregulation of E-cad expression” value in the data set with E-cad [3] (H157), in the data set with E-cad [3] (H460) and in the data set with E-cad [3] (H520) was “Eight to twelve” each time.
